Measurements taken from paper PMC9532703, “A novel small molecule RK-019 inhibits FGFR2-amplification gastric cancer cell proliferation and induces apoptosis in vitro and in vivo” (Frontiers in Pharmacology, 2022).

How the values were obtained:
Test in all cases: Kinase selectivity panel
Type in all cases: biochemical
[1] = molecular target: T1, ALK(h) (Homo sapiens, UniProt Q9UM73); settings: read-out: Inhibition(%) @ 1 µM RK-019
T1 construct: purchased Eurofins Discovery Services (KinaseProfiler)
T1 sequence (Q9UM73 19-1620): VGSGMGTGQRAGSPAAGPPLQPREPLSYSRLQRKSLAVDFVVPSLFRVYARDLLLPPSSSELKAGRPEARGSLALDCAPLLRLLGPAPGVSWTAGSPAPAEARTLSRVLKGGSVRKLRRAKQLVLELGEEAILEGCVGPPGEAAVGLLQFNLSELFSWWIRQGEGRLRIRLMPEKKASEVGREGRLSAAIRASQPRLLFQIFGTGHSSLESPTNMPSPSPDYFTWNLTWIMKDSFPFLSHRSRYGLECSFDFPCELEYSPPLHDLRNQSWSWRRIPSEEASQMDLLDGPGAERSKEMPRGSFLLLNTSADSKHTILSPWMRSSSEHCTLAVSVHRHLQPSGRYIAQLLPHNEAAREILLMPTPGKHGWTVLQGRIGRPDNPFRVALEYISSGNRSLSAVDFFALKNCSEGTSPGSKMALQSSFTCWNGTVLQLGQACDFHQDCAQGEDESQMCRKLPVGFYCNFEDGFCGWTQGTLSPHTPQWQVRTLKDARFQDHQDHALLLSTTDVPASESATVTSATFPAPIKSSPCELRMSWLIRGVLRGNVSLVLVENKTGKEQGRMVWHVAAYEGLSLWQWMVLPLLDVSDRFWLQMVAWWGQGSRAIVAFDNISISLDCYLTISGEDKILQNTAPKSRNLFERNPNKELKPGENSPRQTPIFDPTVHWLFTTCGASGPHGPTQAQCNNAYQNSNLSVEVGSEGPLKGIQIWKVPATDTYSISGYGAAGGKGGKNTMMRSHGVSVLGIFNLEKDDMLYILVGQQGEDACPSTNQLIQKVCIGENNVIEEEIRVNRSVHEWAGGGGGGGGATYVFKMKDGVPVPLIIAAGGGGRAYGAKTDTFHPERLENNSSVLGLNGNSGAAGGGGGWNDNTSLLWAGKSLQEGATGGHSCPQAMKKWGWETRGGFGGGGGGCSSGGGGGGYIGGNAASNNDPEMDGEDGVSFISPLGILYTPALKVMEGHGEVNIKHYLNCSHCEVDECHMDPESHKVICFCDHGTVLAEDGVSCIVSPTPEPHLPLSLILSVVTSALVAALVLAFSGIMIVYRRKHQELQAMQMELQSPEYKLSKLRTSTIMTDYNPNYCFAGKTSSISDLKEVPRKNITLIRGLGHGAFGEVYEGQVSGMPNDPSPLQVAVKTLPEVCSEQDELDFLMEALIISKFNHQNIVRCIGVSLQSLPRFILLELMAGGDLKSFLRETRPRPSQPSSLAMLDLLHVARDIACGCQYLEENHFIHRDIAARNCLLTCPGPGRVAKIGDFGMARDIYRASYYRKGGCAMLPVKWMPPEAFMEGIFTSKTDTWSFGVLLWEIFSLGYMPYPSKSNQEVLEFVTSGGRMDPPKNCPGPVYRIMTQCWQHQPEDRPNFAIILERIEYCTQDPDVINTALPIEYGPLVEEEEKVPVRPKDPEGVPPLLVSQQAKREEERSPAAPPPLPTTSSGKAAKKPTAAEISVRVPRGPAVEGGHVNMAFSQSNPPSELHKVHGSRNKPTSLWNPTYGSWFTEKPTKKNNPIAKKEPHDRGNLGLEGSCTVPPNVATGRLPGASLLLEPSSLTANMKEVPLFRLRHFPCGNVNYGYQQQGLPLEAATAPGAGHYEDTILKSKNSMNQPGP
Summary of the method: (§1)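 Recombinant human kinase incubated with 1 µM compound; ATP-site competition binding quantified in vitro as inhibition ratio.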

[2] = molecular target: T2, ARK5(h) (Homo sapiens, UniProt O60285); settings: read-out: Inhibition(%) @ 1 µM RK-019
T2 construct: purchased Eurofins Discovery Services (KinaseProfiler)
Summary of the method: as §1

[3] = molecular target: T3, ATM(h) (Homo sapiens, UniProt Q13315); settings: read-out: Inhibition(%) @ 1 µM RK-019
T3 construct: purchased Eurofins Discovery Services (KinaseProfiler)
Summary of the method: as §1

[4] = molecular target: T4, Abl(h) (Homo sapiens, UniProt P00519); settings: read-out: Inhibition(%) @ 1 µM RK-019
T4 construct: purchased Eurofins Discovery Services (KinaseProfiler)
Summary of the method: as §1

[5] = molecular target: T5, CDK1/cyclinB(h) (Homo sapiens, UniProt P06493); settings: read-out: Inhibition(%) @ 1 µM RK-019
T5 construct: purchased Eurofins Discovery Services (KinaseProfiler)
Summary of the method: as §1

[6] = molecular target: T6, CDK9/cyclin T1(h) (Homo sapiens, UniProt P50750); settings: read-out: Inhibition(%) @ 1 µM RK-019
T6 construct: purchased Eurofins Discovery Services (KinaseProfiler)
Summary of the method: as §1

[7] = molecular target: T7, CDKL1(h) (Homo sapiens, UniProt Q00532); settings: read-out: Inhibition(%) @ 1 µM RK-019
T7 construct: purchased Eurofins Discovery Services (KinaseProfiler)
Summary of the method: as §1

[8] = molecular target: T8, CK2α1(h) (Homo sapiens, UniProt P68400); settings: read-out: Inhibition(%) @ 1 µM RK-019
T8 construct: purchased Eurofins Discovery Services (KinaseProfiler)
Summary of the method: as §1

[9] = molecular target: T9, CaMKK2(h) (Homo sapiens, UniProt Q96RR4); settings: read-out: Inhibition(%) @ 1 µM RK-019
T9 construct: purchased Eurofins Discovery Services (KinaseProfiler)
Summary of the method: as §1

[10] = molecular target: T10, DNA-PK(h) (Homo sapiens, UniProt P78527); settings: read-out: Inhibition(%) @ 1 µM RK-019
T10 construct: purchased Eurofins Discovery Services (KinaseProfiler)
Summary of the method: as §1

[11] = molecular target: T11, EphA5(h) (Homo sapiens, UniProt P54756); settings: read-out: Inhibition(%) @ 1 µM RK-019
T11 construct: purchased Eurofins Discovery Services (KinaseProfiler)
Summary of the method: as §1

[12] = molecular target: T12, FGFR3(h) (Homo sapiens, UniProt P22607)
T12 construct: purchased Eurofins Discovery Services (KinaseProfiler)
T12 sequence (P22607 23-806): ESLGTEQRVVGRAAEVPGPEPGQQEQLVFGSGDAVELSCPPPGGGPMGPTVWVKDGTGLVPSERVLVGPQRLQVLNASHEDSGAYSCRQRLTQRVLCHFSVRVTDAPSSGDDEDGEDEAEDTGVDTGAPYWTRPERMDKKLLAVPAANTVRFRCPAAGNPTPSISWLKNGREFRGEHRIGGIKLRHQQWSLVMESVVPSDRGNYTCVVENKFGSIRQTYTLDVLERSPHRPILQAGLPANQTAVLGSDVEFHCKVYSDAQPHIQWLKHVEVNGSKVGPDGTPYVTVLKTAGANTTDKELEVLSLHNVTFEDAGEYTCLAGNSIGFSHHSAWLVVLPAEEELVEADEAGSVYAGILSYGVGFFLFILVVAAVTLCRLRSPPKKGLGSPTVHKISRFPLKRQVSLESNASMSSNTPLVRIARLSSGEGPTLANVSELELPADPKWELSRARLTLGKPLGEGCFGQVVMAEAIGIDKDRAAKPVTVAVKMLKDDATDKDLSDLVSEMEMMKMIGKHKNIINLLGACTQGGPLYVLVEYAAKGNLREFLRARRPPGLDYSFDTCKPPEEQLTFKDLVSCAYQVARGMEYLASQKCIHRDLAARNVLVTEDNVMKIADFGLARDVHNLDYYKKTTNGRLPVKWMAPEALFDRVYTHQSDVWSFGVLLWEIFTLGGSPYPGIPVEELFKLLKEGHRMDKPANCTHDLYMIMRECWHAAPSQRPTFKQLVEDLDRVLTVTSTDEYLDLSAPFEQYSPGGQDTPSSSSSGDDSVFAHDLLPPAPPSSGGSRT
Summary of the method: as §1

[13] = molecular target: T13, Fyn(h) (Homo sapiens, UniProt P06241); settings: read-out: Inhibition(%) @ 1 µM RK-019
T13 construct: purchased Eurofins Discovery Services (KinaseProfiler)
Summary of the method: as §1

[14] = molecular target: T14, IR(h) (Homo sapiens, UniProt P06213); settings: read-out: Inhibition(%) @ 1 µM RK-019
T14 construct: purchased Eurofins Discovery Services (KinaseProfiler)
Summary of the method: as §1

[15] = molecular target: T15, Lck(h) (Homo sapiens, UniProt P06239); settings: read-out: Inhibition(%) @ 1 µM RK-019
T15 construct: purchased Eurofins Discovery Services (KinaseProfiler)
Summary of the method: as §1

[16] = molecular target: T16, MLCK(h) (Homo sapiens, UniProt Q15746); settings: read-out: Inhibition(%) @ 1 µM RK-019
T16 construct: purchased Eurofins Discovery Services (KinaseProfiler)
Summary of the method: as §1

[17] = molecular target: T17, MLK1(h) (Homo sapiens, UniProt P80192); settings: read-out: Inhibition(%) @ 1 µM RK-019
T17 construct: purchased Eurofins Discovery Services (KinaseProfiler)
Summary of the method: as §1

[18] = molecular target: T18, MRCKγ(h) (Homo sapiens, UniProt Q6DT37); settings: read-out: Inhibition(%) @ 1 µM RK-019
T18 construct: purchased Eurofins Discovery Services (KinaseProfiler)
Summary of the method: as §1

[19] = molecular target: T19, MST2(h) (Homo sapiens, UniProt Q13188); settings: read-out: Inhibition(%) @ 1 µM RK-019
T19 construct: purchased Eurofins Discovery Services (KinaseProfiler)
Summary of the method: as §1

[20] = molecular target: T20, MYO3B(h) (Homo sapiens, UniProt Q8WXR4); settings: read-out: Inhibition(%) @ 1 µM RK-019
T20 construct: purchased Eurofins Discovery Services (KinaseProfiler)
Summary of the method: as §1

[21] = molecular target: T21, NDR2(h) (Homo sapiens, UniProt Q9Y2H1); settings: read-out: Inhibition(%) @ 1 µM RK-019
T21 construct: purchased Eurofins Discovery Services (KinaseProfiler)
Summary of the method: as §1

[22] = molecular target: T22, NLK(h) (Homo sapiens, UniProt Q9UBE8); settings: read-out: Inhibition(%) @ 1 µM RK-019
T22 construct: purchased Eurofins Discovery Services (KinaseProfiler)
Summary of the method: as §1

[23] = molecular target: T23, PDGFRα(V561D)(h) (Homo sapiens, UniProt P16234, V561D); settings: read-out: Inhibition(%) @ 1 µM RK-019
T23 construct: purchased Eurofins Discovery Services (KinaseProfiler)
Summary of the method: as §1

[24] = molecular target: T24, PI3 Kinase (p110a(E542K)/p85a)(m) (Mus musculus, UniProt P42337, E542K); settings: read-out: Inhibition(%) @ 1 µM RK-019
T24 construct: purchased Eurofins Discovery Services (KinaseProfiler)

[25] = molecular target: T25, PI3 Kinase (p110a/p65a)(h) (Homo sapiens, UniProt P42336); settings: read-out: Inhibition(%) @ 1 µM RK-019
T25 construct: purchased Eurofins Discovery Services (KinaseProfiler)
T25 sequence (P42336 whole entry): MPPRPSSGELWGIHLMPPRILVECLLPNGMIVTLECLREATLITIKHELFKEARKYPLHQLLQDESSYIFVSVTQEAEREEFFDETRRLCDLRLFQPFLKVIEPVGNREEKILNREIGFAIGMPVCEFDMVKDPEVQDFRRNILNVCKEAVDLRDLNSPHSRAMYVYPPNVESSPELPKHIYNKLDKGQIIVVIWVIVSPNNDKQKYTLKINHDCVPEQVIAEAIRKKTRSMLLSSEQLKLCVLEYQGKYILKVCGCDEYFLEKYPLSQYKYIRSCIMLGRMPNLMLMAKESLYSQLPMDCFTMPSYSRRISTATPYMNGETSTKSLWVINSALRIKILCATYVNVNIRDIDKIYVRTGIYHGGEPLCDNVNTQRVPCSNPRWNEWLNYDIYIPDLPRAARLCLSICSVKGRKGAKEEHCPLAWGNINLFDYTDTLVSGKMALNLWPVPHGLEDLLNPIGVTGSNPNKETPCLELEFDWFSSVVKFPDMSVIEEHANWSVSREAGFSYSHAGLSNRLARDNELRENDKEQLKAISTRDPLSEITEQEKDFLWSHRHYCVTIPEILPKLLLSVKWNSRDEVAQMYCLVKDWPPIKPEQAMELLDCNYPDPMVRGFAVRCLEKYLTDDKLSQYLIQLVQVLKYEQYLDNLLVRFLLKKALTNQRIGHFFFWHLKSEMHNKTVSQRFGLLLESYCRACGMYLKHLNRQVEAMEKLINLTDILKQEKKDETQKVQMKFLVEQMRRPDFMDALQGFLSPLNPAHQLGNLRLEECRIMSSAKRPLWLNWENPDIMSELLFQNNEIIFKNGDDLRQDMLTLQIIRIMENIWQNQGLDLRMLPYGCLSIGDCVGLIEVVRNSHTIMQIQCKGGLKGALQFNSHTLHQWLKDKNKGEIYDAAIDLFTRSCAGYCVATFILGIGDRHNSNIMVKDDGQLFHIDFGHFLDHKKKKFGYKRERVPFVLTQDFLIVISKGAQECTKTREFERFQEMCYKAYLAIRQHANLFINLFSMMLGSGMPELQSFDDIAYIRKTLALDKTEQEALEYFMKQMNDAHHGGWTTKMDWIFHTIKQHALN
T25 sequence (P27986 1-571 partner limits assumed): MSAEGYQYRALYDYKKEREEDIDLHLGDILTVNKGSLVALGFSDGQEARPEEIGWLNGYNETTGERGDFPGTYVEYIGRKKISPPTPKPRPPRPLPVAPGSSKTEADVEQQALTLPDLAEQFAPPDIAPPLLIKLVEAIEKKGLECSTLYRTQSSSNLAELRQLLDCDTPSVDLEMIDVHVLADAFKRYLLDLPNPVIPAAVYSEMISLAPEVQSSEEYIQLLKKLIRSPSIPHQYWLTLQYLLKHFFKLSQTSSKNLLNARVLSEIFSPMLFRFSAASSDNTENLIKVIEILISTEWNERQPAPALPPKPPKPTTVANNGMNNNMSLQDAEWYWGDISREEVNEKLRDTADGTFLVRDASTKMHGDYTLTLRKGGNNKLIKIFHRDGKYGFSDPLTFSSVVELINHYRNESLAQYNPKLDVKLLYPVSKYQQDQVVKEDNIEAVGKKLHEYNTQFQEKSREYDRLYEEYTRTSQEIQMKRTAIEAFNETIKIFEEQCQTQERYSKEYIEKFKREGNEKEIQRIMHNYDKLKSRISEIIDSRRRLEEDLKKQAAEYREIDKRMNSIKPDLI
Summary of the method: as §1

[26] = molecular target: T26, PKBβ(h) (Homo sapiens, UniProt P31751); settings: read-out: Inhibition(%) @ 1 µM RK-019
T26 construct: purchased Eurofins Discovery Services (KinaseProfiler)
Summary of the method: as §1

[27] = molecular target: T27, PKCδ(h) (Homo sapiens, UniProt Q05655); settings: read-out: Inhibition(%) @ 1 µM RK-019
T27 construct: purchased Eurofins Discovery Services (KinaseProfiler)
Summary of the method: as §1

[28] = molecular target: T28, PKCμ(h) (Homo sapiens, UniProt Q15139); settings: read-out: Inhibition(%) @ 1 µM RK-019
T28 construct: purchased Eurofins Discovery Services (KinaseProfiler)
Summary of the method: as §1

[29] = molecular target: T29, PhKγ2(h) (Homo sapiens, UniProt P15735); settings: read-out: Inhibition(%) @ 1 µM RK-019
T29 construct: purchased Eurofins Discovery Services (KinaseProfiler)
T29 sequence (P15735 whole entry): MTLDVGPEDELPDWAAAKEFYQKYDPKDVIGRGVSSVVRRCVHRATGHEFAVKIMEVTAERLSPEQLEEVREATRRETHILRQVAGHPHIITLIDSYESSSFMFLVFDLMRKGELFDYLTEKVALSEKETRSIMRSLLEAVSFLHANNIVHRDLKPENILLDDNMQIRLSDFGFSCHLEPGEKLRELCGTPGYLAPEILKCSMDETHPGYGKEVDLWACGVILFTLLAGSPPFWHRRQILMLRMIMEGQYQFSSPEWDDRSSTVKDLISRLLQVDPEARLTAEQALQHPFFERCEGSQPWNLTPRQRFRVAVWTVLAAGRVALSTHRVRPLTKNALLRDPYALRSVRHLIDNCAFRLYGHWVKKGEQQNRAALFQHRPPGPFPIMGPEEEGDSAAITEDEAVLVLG
Summary of the method: as §1

[30] = molecular target: T30, Plk1(h) (Homo sapiens, UniProt P53350); settings: read-out: Inhibition(%) @ 1 µM RK-019
T30 construct: purchased Eurofins Discovery Services (KinaseProfiler)
Summary of the method: as §1

[31] = molecular target: T31, PrKX(h) (Homo sapiens, UniProt P51817); settings: read-out: Inhibition(%) @ 1 µM RK-019
T31 construct: purchased Eurofins Discovery Services (KinaseProfiler)
Summary of the method: as §1

[32] = molecular target: T32, SAPK4(h) (Homo sapiens, UniProt O15264); settings: read-out: Inhibition(%) @ 1 µM RK-019
T32 construct: purchased Eurofins Discovery Services (KinaseProfiler)
Summary of the method: as §1

[33] = molecular target: T33, SRMS(h) (Homo sapiens, UniProt Q9H3Y6); settings: read-out: Inhibition(%) @ 1 µM RK-019
T33 construct: purchased Eurofins Discovery Services (KinaseProfiler)
Summary of the method: as §1

[34] = molecular target: T34, Src(1-530)(h) (Homo sapiens, UniProt P12931); settings: read-out: Inhibition(%) @ 1 µM RK-019
T34 construct: purchased Eurofins Discovery Services (KinaseProfiler)
T34 sequence (P12931 1-530 limits assumed): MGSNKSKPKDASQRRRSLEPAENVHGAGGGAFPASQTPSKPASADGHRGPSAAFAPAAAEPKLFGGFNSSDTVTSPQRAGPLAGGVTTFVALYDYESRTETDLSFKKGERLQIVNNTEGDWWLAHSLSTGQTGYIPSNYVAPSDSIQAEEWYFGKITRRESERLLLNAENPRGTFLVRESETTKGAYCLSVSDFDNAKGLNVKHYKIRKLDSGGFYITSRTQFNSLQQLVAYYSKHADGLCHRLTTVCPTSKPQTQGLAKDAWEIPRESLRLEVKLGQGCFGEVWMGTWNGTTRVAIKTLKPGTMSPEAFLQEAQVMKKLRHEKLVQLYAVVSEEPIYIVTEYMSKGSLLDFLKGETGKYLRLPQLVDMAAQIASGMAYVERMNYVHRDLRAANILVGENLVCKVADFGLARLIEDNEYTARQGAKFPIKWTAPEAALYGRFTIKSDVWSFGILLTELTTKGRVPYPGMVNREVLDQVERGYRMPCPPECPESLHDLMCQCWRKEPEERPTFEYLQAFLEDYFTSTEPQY
Summary of the method: as §1

[35] = molecular target: T35, Tie2 (h) (Homo sapiens, UniProt Q02763); settings: read-out: Inhibition(%) @ 1 µM RK-019
T35 construct: purchased Eurofins Discovery Services (KinaseProfiler)
Summary of the method: as §1

[36] = molecular target: T36, ULK2(h) (Homo sapiens, UniProt Q8IYT8); settings: read-out: Inhibition(%) @ 1 µM RK-019
T36 construct: purchased Eurofins Discovery Services (KinaseProfiler)
Summary of the method: as §1

[37] = molecular target: T37, Wee1(h) (Homo sapiens, UniProt P30291); settings: read-out: Inhibition(%) @ 1 µM RK-019
T37 construct: purchased Eurofins Discovery Services (KinaseProfiler)
Summary of the method: as §1

**Q.** With COc1cc(OC)cc(N(CCN[C@H](C)CO)c2ccc3ncc(-c4cnn(C)c4)c(=O)n3c2)c1 [RK-019, (R)-7-((3,5-dimethoxyphenyl) (2-((1-hydroxypropan-2-yl)amino)ethyl)amino)-3-(1-methyl-1H-pyrazol-4-yl)-4H-pyrido [1,2-a]pyrimidin-4-one] as the molecule, how does the activity at 1 µM [1] read?
**A.** The activity at 1 µM was 85%.

**Q.** What about the activity at 1 µM [2] of the same molecule?
**A.** Its activity at 1 µM is 146%.

**Q.** What about the activity at 1 µM [3] of the same molecule?
**A.** The activity at 1 µM was 105%.

**Q.** What about the activity at 1 µM [4] of the same molecule?
**A.** Its activity at 1 µM is 40%.

**Q.** And the activity at 1 µM [5]?
**A.** Its activity at 1 µM is 99%.

**Q.** What about the activity at 1 µM [6] of the same molecule?
**A.** Its activity at 1 µM is 99%.

**Q.** What about the activity at 1 µM [7] of the same molecule?
**A.** Its activity at 1 µM is 97%.

**Q.** What about the activity at 1 µM [8] of the same molecule?
**A.** Its activity at 1 µM is 95%.

**Q.** What about the activity at 1 µM [9] of the same molecule?
**A.** Its activity at 1 µM is 95%.

**Q.** What about the activity at 1 µM [10] of the same molecule?
**A.** The activity at 1 µM was 101%.

**Q.** What about the activity at 1 µM [11] of the same molecule?
**A.** Its activity at 1 µM is 45%.

**Q.** What about the activity at 1 µM ([12]; FGFR3(h), read-out: Inhibition(%) @ 1 µM RK-019) of the same molecule?
**A.** Its activity at 1 µM is -3%.

**Q.** What about the inhibition at 1 µM ([12]; FGFR3, 1 µM, read-out: inhibition (hit in panel)) of the same molecule?
**A.** The inhibition at 1 µM was > 90%.

**Q.** What about the activity at 1 µM [13] of the same molecule?
**A.** Its activity at 1 µM is 62%.

**Q.** And the activity at 1 µM [14]?
**A.** Its activity at 1 µM is 118%.

**Q.** What about the activity at 1 µM [15] of the same molecule?
**A.** The activity at 1 µM was 30%.

**Q.** What about the activity at 1 µM [16] of the same molecule?
**A.** The activity at 1 µM was 92%.

**Q.** And the activity at 1 µM [17]?
**A.** Its activity at 1 µM is 99%.

**Q.** And the activity at 1 µM [18]?
**A.** Its activity at 1 µM is 94%.

**Q.** And the activity at 1 µM [19]?
**A.** The activity at 1 µM was 97%.

**Q.** And the activity at 1 µM [20]?
**A.** The activity at 1 µM was 106%.

**Q.** What about the activity at 1 µM [21] of the same molecule?
**A.** The activity at 1 µM was 108%.

**Q.** What about the activity at 1 µM [22] of the same molecule?
**A.** The activity at 1 µM was 86%.

**Q.** What about the activity at 1 µM [23] of the same molecule?
**A.** Its activity at 1 µM is 1%.

**Q.** What about the activity at 1 µM [24] of the same molecule?
**A.** The activity at 1 µM was 99%.

**Q.** And the activity at 1 µM [25]?
**A.** The activity at 1 µM was 94%.

**Q.** What about the activity at 1 µM [26] of the same molecule?
**A.** Its activity at 1 µM is 84%.

**Q.** What about the activity at 1 µM [27] of the same molecule?
**A.** The activity at 1 µM was 99%.

**Q.** And the activity at 1 µM [28]?
**A.** Its activity at 1 µM is 107%.

**Q.** What about the activity at 1 µM [29] of the same molecule?
**A.** Its activity at 1 µM is 88%.

**Q.** And the activity at 1 µM [30]?
**A.** The activity at 1 µM was 117%.

**Q.** What about the activity at 1 µM [31] of the same molecule?
**A.** The activity at 1 µM was 98%.

**Q.** What about the activity at 1 µM [32] of the same molecule?
**A.** The activity at 1 µM was 112%.

**Q.** What about the activity at 1 µM [33] of the same molecule?
**A.** Its activity at 1 µM is 123%.

**Q.** And the activity at 1 µM [34]?
**A.** Its activity at 1 µM is 45%.

**Q.** And the activity at 1 µM [35]?
**A.** The activity at 1 µM was 105%.

**Q.** And the activity at 1 µM [36]?
**A.** The activity at 1 µM was 107%.

**Q.** What about the activity at 1 µM [37] of the same molecule?
**A.** Its activity at 1 µM is 92%.
